Reference: US10233187B2, “Fused bicyclic compounds for the treatment of disease” (AKARNA THERAPEUTICS, LTD., priority 2014, dated 2019)

Target: FXR (Homo sapiens (Human), UniProt Q96RI1)
Assay: FXR Agonist Assay (Gaussia luciferase reporter)
Assay type: cell-based
Conditions: cells incubated with compound at 37° C. for 20 hours; Gaussia luciferase luminescence; 10-point dose-response in duplicate
Method: Starting from 3.33 mM of compound in DMSO solution, a 10-point 3-fold serial dilution was made by diluting 5 μL of compound into 10 μL of DMSO. The serially diluted compound was then diluted 1:33 into DMEM. This medium was then diluted ten-fold into the culture medium with the cells (10 μL/well). All concentration points are assayed in duplicate. Plates were incubated at 37° C. for 20 hours. After the incubation, 20 μL of culture medium were removed from each well and mixed with 50 μL of assay solution (Pierce™ Gaussia Luciferase Flash Assay Kit). The luminescence was measured immediately after addition of the Luc substrate with an Envision microplate reader. The raw data was uploaded to CDD and dose-response curves were generated using the Levenberg-Marquardt algorithm integrated into CDD. A negative control DMSO is included on each plate and used to normalize the data with the CDD built-in normalization function.

Sequence of FXR (Q96RI1 whole entry, species assumed): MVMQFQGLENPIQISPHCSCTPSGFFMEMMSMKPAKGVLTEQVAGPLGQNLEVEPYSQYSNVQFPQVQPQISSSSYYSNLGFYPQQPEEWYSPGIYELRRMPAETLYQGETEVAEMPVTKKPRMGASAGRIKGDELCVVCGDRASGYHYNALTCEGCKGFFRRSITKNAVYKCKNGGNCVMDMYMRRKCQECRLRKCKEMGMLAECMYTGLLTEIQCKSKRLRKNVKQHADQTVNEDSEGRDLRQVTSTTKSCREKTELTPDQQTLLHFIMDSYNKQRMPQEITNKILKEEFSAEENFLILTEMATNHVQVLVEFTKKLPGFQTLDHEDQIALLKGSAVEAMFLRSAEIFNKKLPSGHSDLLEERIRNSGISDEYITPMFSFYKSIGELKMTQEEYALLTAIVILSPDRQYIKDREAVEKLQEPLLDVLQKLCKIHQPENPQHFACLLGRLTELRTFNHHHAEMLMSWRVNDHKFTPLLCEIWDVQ

Compound	EC50 [nM]
CC(C)NC(=O)C1=CN(C(=O)c2ccc(F)c(F)c2)CC(C)(C)c2c(C(F)(F)F)n[nH]c21 [Example 14]	< 200
CCCc1n[nH]c2c1C(C)(C)CN(C(=O)c1cccnc1)C=C2C(=O)OC(C)C [Example 18]	200 to 1000
COCCc1n[nH]c2c1C(C)(C)CN(C(=O)c1cccc(F)c1)C=C2C(=O)OC(C)C [Example 27]	< 200
CC(C)OC(=O)C1=CN(C(=O)N2CCN(C)CC2)CC(C)(C)c2c(C(F)(F)F)n[nH]c21 [Example 22]	200 to 1000
CC(C)OC(=O)C1=CN(C(=O)c2ccc(F)c(CN3CCOCC3)c2)CC(C)(C)c2c(C(F)(F)F)n[nH]c21 [Example 12]	< 200
CC(C)OC(=O)C1=CN(C(=O)c2cccc(OCCN3CCOCC3)c2)CC(C)(C)c2c(C(F)(F)F)n[nH]c21 [Example 7]	200 to 1000
CCCc1n[nH]c2c1C(C)(C)CN(C(=O)c1cccc(F)c1)C=C2C(=O)OC(C)C [Example 37]	< 200
CCCc1n[nH]c2c1C(C)(C)CN(C(=O)c1ccc(F)c(F)c1)C=C2C(=O)OCC [Example 40]	< 200
CC(C)OC(=O)C1=CN(C(=O)c2cccc(F)c2)CC(C)(C)c2c(C(F)(F)F)n[nH]c21 [Example 23]	< 200
CC(C)OC(=O)C1=CN(C(=O)c2ccc(F)cc2F)CC(C)(C)c2c(C(F)(F)F)n[nH]c21 [Example 16]	< 200
CC(C)OC(=O)C1=CN(C(=O)c2ccc(F)c(F)c2)CC(C)(C)c2cn[nH]c21 [Example 46]	200 to 1000
CC(=O)c1n[nH]c2c1C(C)(C)CN(C(=O)c1ccc(F)c(F)c1)C=C2C(=O)OC(C)C [Example 10]	< 200
CC(C)OC(=O)C1=CN(C(=O)c2ccc(F)cc2)CC(C)(C)c2c(C(F)(F)F)n[nH]c21 [Example 17]	< 200
CCCc1n[nH]c2c1C(C)(C)CN(C(=O)c1ccncc1)C=C2C(=O)OC(C)C [Example 20]	200 to 1000
CCCc1n[nH]c2c1C(C)(C)CN(C(=O)C1CCOCC1)C=C2C(=O)OC(C)C [Example 36]	200 to 1000
CCOC(=O)C1=CN(C(=O)c2cccc(F)c2)CC(C)(C)c2cn[nH]c21 [Example 49]	200 to 1000
CCCCc1n[nH]c2c1C(C)(C)CN(C(=O)c1cccc(F)c1)C=C2C(=O)OC(C)C [Example 33]	< 200
CC(C)OC(=O)C1=CN(C(=O)c2ccc(F)c(OCCN3CCOCC3)c2)CC(C)(C)c2c(C(F)(F)F)n[nH]c21 [Example 6]	200 to 1000
CC(C)Cc1n[nH]c2c1C(C)(C)CN(C(=O)c1ccc(F)c(F)c1)C=C2C(=O)OC(C)C [Example 26]	< 200
CCCc1n[nH]c2c1C(C)(C)CN(C(=O)N1CCOCC1)C=C2C(=O)OC(C)C [Example 34]	200 to 1000
CCCc1n[nH]c2c1C(C)(C)CN(C(=O)c1ccc(C(F)(F)F)nc1)C=C2C(=O)OC(C)C [Example 21]	200 to 1000
CCCc1n[nH]c2c1C(C)(C)CN(C(=O)c1ccc(F)c(F)c1)C=C2C(=O)OC(C)C [Example 38]	< 200
CCCCc1n[nH]c2c1C(C)(C)CN(C(=O)c1ccc(F)c(F)c1)C=C2C(=O)OCC [Example 39]	< 200
CCCCc1n[nH]c2c1C(C)(C)CN(C(=O)c1ccc(F)c(F)c1)C=C2C(=O)OC(C)C [Example 31]	< 200
CCOC(=O)C1=CN(C(=O)c2ccc3c(c2)OC(F)(F)O3)CC(C)(C)c2cn[nH]c21 [Example 47]	1000 to 10000
CCOC(=O)C1=CN(C(=O)c2ccc(F)c(F)c2)CC(C)(C)c2c(CC)n[nH]c21 [Example 41]	< 200
CCCCc1n[nH]c2c1C(C)(C)CN(C(=O)N1CCOCC1)C=C2C(=O)OC(C)C [Example 29]	< 200

Now from value to compound:

EC50 [nM]	Compound
200 to 1000	CC(C)NC(=O)C1=CN(C(=O)c2ccc(F)c(F)c2)CC(C)(C)c2cn[nH]c21 [Example 45]
200 to 1000	CCCCc1n[nH]c2c1C(C)(C)CN(C(=O)C1CCCCC1)C=C2C(=O)OC(C)C [Example 30]
< 200	CCCc1n[nH]c2c1C(C)(C)CN(C(=O)C1CCCCC1)C=C2C(=O)OC(C)C [Example 35]
< 200	CC(C)OC(=O)C1=CN(C(=O)c2ccc(OCCN3CCOCC3)cc2)CC(C)(C)c2c(C(F)(F)F)n[nH]c21 [Example 13]
1000 to 10000	CCCc1n[nH]c2c1C(C)(C)CN(C(=O)c1ccccn1)C=C2C(=O)OC(C)C [Example 19]
< 200	CCOC(=O)C1=CN(C(=O)c2ccc(F)c(F)c2)CC(C)(C)c2c(-c3ccc(F)cc3)n[nH]c21 [Example 3, (E)-ethyl 6-(3,4-difluorobenzoyl)-3-(4-fluorophenyl)-4,4-dimethyl-1,4,5,6-tetrahydropyrazolo[3,4-d]azepine-8-carboxylate]
200 to 1000	CCCCc1n[nH]c2c1C(C)(C)CN(C(=O)C1CCOCC1)C=C2C(=O)OC(C)C [Example 32]
< 200	CCOC(=O)C1=CN(C(=O)c2ccc(F)c(F)c2)CC(C)(C)c2c(C(C)C)n[nH]c21 [Example 5]
200 to 1000	CCOC(=O)C1=CN(C(=O)c2ccc(F)c(F)c2)CC(C)(C)c2cn[nH]c21 [Example 4, (E)-ethyl 6-(3,4-difluorobenzoyl)-4,4-dimethyl-1,4,5,6-tetrahydropyrazolo[3,4-d]azepine-8-carboxylate]
< 200	CC(C)OC(=O)C1=CN(C(=O)c2ccc(Cl)c(Cl)c2)CC(C)(C)c2cn[nH]c21 [Example 42]
< 200	CCOC(=O)C1=CN(C(=O)c2ccc(F)c(F)c2)CC(C)(C)c2c(C)n[nH]c21 [Example 2, (E)-ethyl 6-(3,4-difluorobenzoyl)-3,4,4-trimethyl-1,4,5,6-tetrahydropyrazolo[3,4-d]azepine-8-carboxylate]
< 200	CC(C)OC(=O)C1=CN(C(=O)c2ccc(F)c(F)c2)CC(C)(C)c2c(C(F)(F)F)n[nH]c21 [Example 24]
< 200	COCCc1n[nH]c2c1C(C)(C)CN(C(=O)c1ccc(F)c(F)c1)C=C2C(=O)OC(C)C [Example 28]
< 200	CC(C)NC(=O)C1=CN(C(=O)c2ccc(OCCN3CCOCC3)cc2)CC(C)(C)c2c(C(F)(F)F)n[nH]c21 [Example 8]
1000 to 10000	CCOC(=O)C1=CN(C(=O)C2CCCCC2)CC(C)(C)c2cn[nH]c21 [Example 48]
200 to 1000	CCOC(=O)C1=CN(C(=O)c2cc3ccccc3s2)CC(C)(C)c2cn[nH]c21 [Example 44]
< 200	CC(C)Cc1n[nH]c2c1C(C)(C)CN(C(=O)c1cccc(F)c1)C=C2C(=O)OC(C)C [Example 25]
< 200	CC(C)OC(=O)C1=CN(C(=O)c2ccc(OCCCN3CCOCC3)cc2)CC(C)(C)c2c(C(F)(F)F)n[nH]c21 [Example 9]
< 200	CCOC(=O)C1=CN(C(=O)c2ccc3ccccc3c2)CC(C)(C)c2cn[nH]c21 [Example 43]
< 200	CC(C)OC(=O)C1=CN(C(=O)c2cc(F)c(F)cc2Cl)CC(C)(C)c2c(C(F)(F)F)n[nH]c21 [Example 11]
